Results reported in ChEMBL document CHEMBL3885881, “DrugMatrix”.

Organism: Rattus norvegicus
Experiment: DrugMatrix - Regimen: Daily Repeat
Type: toxicity, organism-based, Sprague-Dawley
Set-up: regimen Daily Repeat, gender Male, age 6-8 weeks
Conditions: in vivo, po, route oral GAVAGE, vehicle 100 % WATER; for ABSOLUTE BASOPHIL / ABSOLUTE EOSINOPHIL / ABSOLUTE LYMPHOCYTE / ABSOLUTE MONOCYTE / ABSOLUTE SEGMENTED NEUTROPHIL / BASOPHIL / EOSINOPHIL / ERYTHROCYTE COUNT / HEMATOCRIT / HEMOGLOBIN / LEUKOCYTE COUNT / LYMPHOCYTE / MEAN CORPUSCULAR HEMOGLOBIN / MEAN CORPUSCULAR HEMOGLOBIN CONCENTRATION / MEAN CORPUSCULAR VOLUME / MONOCYTE / NEUTROPHIL / NUCLEATED RED BLOOD CELLS / PLATELET COUNT: tissue Blood; for ALANINE AMINOTRANSFERASE / ALBUMIN / ALKALINE PHOSPHATASE / ASPARTATE AMINOTRANSFERASE / BLOOD UREA NITROGEN / CARBON DIOXIDE / CHLORIDE / CHOLESTEROL / CREATINE PHOSPHOKINASE / CREATININE / GLUCOSE / LACTATE DEHYDROGENASE / LIPASE / PHOSPHORUS / POTASSIUM / SODIUM / TOTAL BILIRUBIN / TOTAL PROTEIN / URIC ACID: tissue Plasma
[1] = 0 mg/kg, 72 h, dose level Control, time 3 day
[2] = 0 mg/kg, 120 h, dose level Control, time 5 day
[3] = 175 mg/kg, 72 h, dose level High, time 3 day

O=c1[nH]c(=O)n(C2CCCO2)cc1F (centres undefined) [TEGAFUR]
ABSOLUTE BASOPHIL [1]: 0 CELLS/uL
ABSOLUTE EOSINOPHIL [1]: 168.33 CELLS/uL
ABSOLUTE LYMPHOCYTE [1]: 13654.17 CELLS/uL
ABSOLUTE MONOCYTE [1]: 121 CELLS/uL
ABSOLUTE SEGMENTED NEUTROPHIL [1]: 1223.17 CELLS/uL
BASOPHIL [1]: 0%
EOSINOPHIL [1]: 1.17%
ERYTHROCYTE COUNT [1]: 5.7 x10E6/uL
HEMATOCRIT [1]: 35.33%
HEMOGLOBIN [1]: 13.97 G/DL
LEUKOCYTE COUNT [1]: 15.17 x10E3/uL
LYMPHOCYTE [1]: 89.83%
MEAN CORPUSCULAR HEMOGLOBIN [1]: 24.53 pg
MEAN CORPUSCULAR HEMOGLOBIN CONCENTRATION [1]: 39.53 G/DL
MEAN CORPUSCULAR VOLUME [1]: 62.05 fL
MONOCYTE [1]: 0.83%
NEUTROPHIL [1]: 8.17%
NUCLEATED RED BLOOD CELLS [1]: 0 /100WBC
PLATELET COUNT [1]: 1312.17 x10E3/uL
ALANINE AMINOTRANSFERASE [1]: 50.83 u/L
ALBUMIN [1]: 4.18 G/DL
ALKALINE PHOSPHATASE [1]: 334.17 u/L
ASPARTATE AMINOTRANSFERASE [1]: 82.17 u/L
BLOOD UREA NITROGEN [1]: 15.5 mg/dL
CARBON DIOXIDE [1]: 31.33 mmol/L
CHLORIDE [1]: 99.83 MEQ/L
CHOLESTEROL [1]: 76 mg/dL
CREATINE PHOSPHOKINASE [1]: 272.17 u/L
CREATININE [1]: 0.17 mg/dL
GLUCOSE [1]: 143 mg/dL
LACTATE DEHYDROGENASE [1]: 157.5 u/L
LIPASE [1]: 9.33 u/L
PHOSPHORUS [1]: 12.18 mg/dL
POTASSIUM [1]: 6.78 MEQ/L
SODIUM [1]: 143.9 MEQ/L
TOTAL BILIRUBIN [1]: 0.22 mg/dL
TOTAL PROTEIN [1]: 5.85 G/DL
URIC ACID [1]: 1.7 mg/dL
ABSOLUTE BASOPHIL [2]: 0 CELLS/uL
ABSOLUTE EOSINOPHIL [2]: 0 CELLS/uL
ABSOLUTE LYMPHOCYTE [2]: 13539.33 CELLS/uL
ABSOLUTE MONOCYTE [2]: 177.67 CELLS/uL
ABSOLUTE SEGMENTED NEUTROPHIL [2]: 2116.33 CELLS/uL
BASOPHIL [2]: 0%
EOSINOPHIL [2]: 0%
ERYTHROCYTE COUNT [2]: 5.78 x10E6/uL
HEMATOCRIT [2]: 36.13%
HEMOGLOBIN [2]: 14.1 G/DL
LEUKOCYTE COUNT [2]: 15.83 x10E3/uL
LYMPHOCYTE [2]: 85.83%
MEAN CORPUSCULAR HEMOGLOBIN [2]: 24.42 pg
MEAN CORPUSCULAR HEMOGLOBIN CONCENTRATION [2]: 39 G/DL
MEAN CORPUSCULAR VOLUME [2]: 62.55 fL
MONOCYTE [2]: 0.83%
NEUTROPHIL [2]: 13.33%
NUCLEATED RED BLOOD CELLS [2]: 0.17 /100WBC
PLATELET COUNT [2]: 1281.17 x10E3/uL
ALANINE AMINOTRANSFERASE [2]: 55.5 u/L
ALBUMIN [2]: 4.22 G/DL
ALKALINE PHOSPHATASE [2]: 345 u/L
ASPARTATE AMINOTRANSFERASE [2]: 92.5 u/L
BLOOD UREA NITROGEN [2]: 16.5 mg/dL
CARBON DIOXIDE [2]: 26.5 mmol/L
CHLORIDE [2]: 103.5 MEQ/L
CHOLESTEROL [2]: 78.5 mg/dL
CREATINE PHOSPHOKINASE [2]: 381.5 u/L
CREATININE [2]: 0.21 mg/dL
GLUCOSE [2]: 161.83 mg/dL
LACTATE DEHYDROGENASE [2]: 487.5 u/L
LIPASE [2]: 10.17 u/L
PHOSPHORUS [2]: 11.83 mg/dL
POTASSIUM [2]: 6.4 MEQ/L
SODIUM [2]: 146.95 MEQ/L
TOTAL BILIRUBIN [2]: 0.22 mg/dL
TOTAL PROTEIN [2]: 6.22 G/DL
URIC ACID [2]: 1.83 mg/dL
ABSOLUTE BASOPHIL [3]: 0 CELLS/uL
ABSOLUTE EOSINOPHIL [3]: 0 CELLS/uL
ABSOLUTE LYMPHOCYTE [3]: 11530.33 CELLS/uL
ABSOLUTE MONOCYTE [3]: 235 CELLS/uL
ABSOLUTE SEGMENTED NEUTROPHIL [3]: 434.67 CELLS/uL
BASOPHIL [3]: 0%
EOSINOPHIL [3]: 0%
ERYTHROCYTE COUNT [3]: 5.62 x10E6/uL
HEMATOCRIT [3]: 35%
HEMOGLOBIN [3]: 13.93 G/DL
LEUKOCYTE COUNT [3]: 12.2 x10E3/uL
LYMPHOCYTE [3]: 94.33%
MEAN CORPUSCULAR HEMOGLOBIN [3]: 24.87 pg
MEAN CORPUSCULAR HEMOGLOBIN CONCENTRATION [3]: 39.83 G/DL
MEAN CORPUSCULAR VOLUME [3]: 62.43 fL
MONOCYTE [3]: 2%
NEUTROPHIL [3]: 3.67%
NUCLEATED RED BLOOD CELLS [3]: 0 /100WBC
PLATELET COUNT [3]: 1245 x10E3/uL
ALANINE AMINOTRANSFERASE [3]: 377 u/L
ALBUMIN [3]: 4.23 G/DL
ALKALINE PHOSPHATASE [3]: 316.67 u/L
ASPARTATE AMINOTRANSFERASE [3]: 623.67 u/L
BLOOD UREA NITROGEN [3]: 18 mg/dL
CARBON DIOXIDE [3]: 25.33 mmol/L
CHLORIDE [3]: 98 MEQ/L
CHOLESTEROL [3]: 59.33 mg/dL
CREATINE PHOSPHOKINASE [3]: 3619.67 u/L
CREATININE [3]: 0.24 mg/dL
GLUCOSE [3]: 187.67 mg/dL
LACTATE DEHYDROGENASE [3]: 3501.33 u/L
LIPASE [3]: 13.33 u/L
PHOSPHORUS [3]: 13.57 mg/dL
POTASSIUM [3]: 9.03 MEQ/L
SODIUM [3]: 141.23 MEQ/L
TOTAL BILIRUBIN [3]: 0.23 mg/dL
TOTAL PROTEIN [3]: 5.9 G/DL
URIC ACID [3]: 2.9 mg/dL
